# Tested on: MV-4-11 cells
# Assay: Gene expression microarray analysis (Affymetrix PrimeView) and GSEA
# Format: cell-based, human
# Set-up: RFU PODN (11730768_x_at) / Fold change /veh PODN (11730768_x_at) / RFU LINC00158 (11744669_a_at) / Fold change /veh LINC00158 (11744669_a_at) / RFU DUSP10 (11751237_a_at) / Fold change /veh DUSP10 (11751237_a_at) / RFU ID3 (11757404_x_at) / Fold change /veh ID3 (11757404_x_at) / RFU PLEKHG5 (11737974_s_at) / Fold change /veh PLEKHG5 (11737974_s_at) / RFU LRRC4B (11730491_at) / Fold change /veh LRRC4B (11730491_at) / RFU GIMAP4 (11747438_a_at) / Fold change /veh GIMAP4 (11747438_a_at) / RFU KRT8 (11758183_x_at) / Fold change /veh KRT8 (11758183_x_at) / RFU CNN1 (11734310_a_at) / Fold change /veh CNN1 (11734310_a_at) / RFU VPS37D (11726825_at) / Fold change /veh VPS37D (11726825_at) / RFU C10orf10 (11716522_x_at) / Fold change /veh C10orf10 (11716522_x_at) / RFU KIR2DL2 /// KIR2DL4 /// KIR2DL5A /// KIR2DL5B /// KIR2DS1 /// KIR2DS2 /// KIR2DS3 /// KIR2DS4 /// KIR3DL3 /// KIR3DL3 /// KIR3DS1 (11738374_at) / Fold change /veh KIR2DL2 /// KIR2DL4 /// KIR2DL5A /// KIR2DL5B /// KIR2DS1 /// KIR2DS2 /// KIR2DS3 /// KIR2DS4 /// KIR3DL3 /// KIR3DL3 /// KIR3DS1 (11738374_at) / RFU C1QL1 (11718748_at) / Fold change /veh C1QL1 (11718748_at) / RFU TMPRSS4 (11747572_a_at) / Fold change /veh TMPRSS4 (11747572_a_at) / RFU HAMP (11756126_x_at) / Fold change /veh HAMP (11756126_x_at) / RFU RNFT2 (11725882_a_at) / Fold change /veh RNFT2 (11725882_a_at) / RFU NR4A2 (11747474_a_at) / Fold change /veh NR4A2 (11747474_a_at) / RFU ABCC12 (11746883_a_at) / Fold change /veh ABCC12 (11746883_a_at) / RFU TMEM136 (11760407_x_at) / Fold change /veh TMEM136 (11760407_x_at) / RFU CLDN22 /// WWC2 (11732394_at) / Fold change /veh CLDN22 /// WWC2 (11732394_at) / RFU HLA-DPB1 (11760878_x_at) / Fold change /veh HLA-DPB1 (11760878_x_at) / RFU SPINT1 (11716480_a_at) / Fold change /veh SPINT1 (11716480_a_at) / RFU GAP43 (11754022_s_at) / Fold change /veh GAP43 (11754022_s_at) / RFU A4GNT (11735810_at) / Fold change /veh A4GNT (11735810_at) / RFU PRB3 (11715151_x_at) / Fold change /veh PRB3 (11715151_x_at) / RFU TUBB4B (11761932_at) / Fold change /veh TUBB4B (11761932_at) / RFU CAPN14 (11732068_a_at) / Fold change /veh CAPN14 (11732068_a_at) / RFU TMCC2 (11721928_a_at) / Fold change /veh TMCC2 (11721928_a_at) / RFU IRGQ (11745062_a_at) / Fold change /veh IRGQ (11745062_a_at) / RFU FAM174B (11720279_a_at) / Fold change /veh FAM174B (11720279_a_at) / RFU TMPRSS4 (11748680_a_at) / Fold change /veh TMPRSS4 (11748680_a_at) / RFU FAM212B (11763350_a_at) / Fold change /veh FAM212B (11763350_a_at) / RFU PLEKHG5 (11743358_a_at) / Fold change /veh PLEKHG5 (11743358_a_at) / RFU ZSCAN30 (11745921_a_at) / Fold change /veh ZSCAN30 (11745921_a_at) / RFU CMKLR1 (11741424_a_at) / Fold change /veh CMKLR1 (11741424_a_at) / RFU LOC101060620 /// MAPK8IP1 (11723275_at) / Fold change /veh LOC101060620 /// MAPK8IP1 (11723275_at) / RFU SPTSSB (11747773_x_at) / Fold change /veh SPTSSB (11747773_x_at) / RFU PRSS12 (11739890_at) / Fold change /veh PRSS12 (11739890_at) / RFU BIN1 (11741810_x_at) / Fold change /veh BIN1 (11741810_x_at) / RFU WNT11 (11732464_a_at) / Fold change /veh WNT11 (11732464_a_at) / RFU C10orf10 (11716521_a_at) / Fold change /veh C10orf10 (11716521_a_at) / RFU C5orf56 (11738089_at) / Fold change /veh C5orf56 (11738089_at) / RFU CYB561 (11721691_x_at) / Fold change /veh CYB561 (11721691_x_at) / RFU ANKRD19P (11752326_a_at) / Fold change /veh ANKRD19P (11752326_a_at) / RFU OR2T12 /// OR2T33 /// OR2T8 (11738714_s_at) / Fold change /veh OR2T12 /// OR2T33 /// OR2T8 (11738714_s_at) / RFU VCAN (11748164_a_at) / Fold change /veh VCAN (11748164_a_at) / RFU JSRP1 (11732532_at) / Fold change /veh JSRP1 (11732532_at) / RFU KRTAP10-11 (11738290_x_at) / Fold change /veh KRTAP10-11 (11738290_x_at) / RFU MYO3A (11730013_a_at) / Fold change /veh MYO3A (11730013_a_at) / RFU EBF3 (11725865_a_at) / Fold change /veh EBF3 (11725865_a_at) / RFU CAMK2N1 (11719241_x_at) / Fold change /veh CAMK2N1 (11719241_x_at) / RFU C5orf56 (11738088_a_at) / Fold change /veh C5orf56 (11738088_a_at) / RFU OLFML3 (11715873_a_at) / Fold change /veh OLFML3 (11715873_a_at) / RFU LOC100653217 /// NTM (11731650_a_at) / Fold change /veh LOC100653217 /// NTM (11731650_a_at) / RFU MAPK11 (11762145_a_at) / Fold change /veh MAPK11 (11762145_a_at) / RFU FIZ1 (11724087_x_at) / Fold change /veh FIZ1 (11724087_x_at) / RFU OASL (11726364_x_at) / Fold change /veh OASL (11726364_x_at) / RFU SOX15 (11748057_x_at) / Fold change /veh SOX15 (11748057_x_at) / RFU CD79A (11719716_a_at) / Fold change /veh CD79A (11719716_a_at) / RFU HIST1H1D (11736915_at) / Fold change /veh HIST1H1D (11736915_at) / RFU CASKIN2 (11723855_a_at) / Fold change /veh CASKIN2 (11723855_a_at) / RFU LOC730098 (11760151_x_at) / Fold change /veh LOC730098 (11760151_x_at) / RFU OR4N2 (11742367_at) / Fold change /veh OR4N2 (11742367_at) / RFU PRRT2 (11749266_a_at) / Fold change /veh PRRT2 (11749266_a_at) / RFU SNX32 (11753110_a_at) / Fold change /veh SNX32 (11753110_a_at) / RFU CDHR5 (11726645_a_at) / Fold change /veh CDHR5 (11726645_a_at) / RFU RCAN1 (11760418_a_at) / Fold change /veh RCAN1 (11760418_a_at) / RFU FAM167A (11723789_a_at) / Fold change /veh FAM167A (11723789_a_at) / RFU FAM26E (11764081_at) / Fold change /veh FAM26E (11764081_at) / RFU ISYNA1 (11749810_s_at) / Fold change /veh ISYNA1 (11749810_s_at) / RFU ACY1 (11761880_at) / Fold change /veh ACY1 (11761880_at) / RFU 11764098_at / Fold change /veh 11764098_at / RFU SAMD14 (11745864_x_at) / Fold change /veh SAMD14 (11745864_x_at) / RFU NPB (11741838_a_at) / Fold change /veh NPB (11741838_a_at) / RFU TMPRSS6 (11731388_a_at) / Fold change /veh TMPRSS6 (11731388_a_at) / RFU KRTAP10-2 (11738614_at) / Fold change /veh KRTAP10-2 (11738614_at) / RFU ARHGAP8 /// PRR5-ARHGAP8 (11727945_x_at) / Fold change /veh ARHGAP8 /// PRR5-ARHGAP8 (11727945_x_at) / RFU KRTAP5-7 /// NADSYN1 (11734609_at) / Fold change /veh KRTAP5-7 /// NADSYN1 (11734609_at) / RFU RASL12 (11751679_a_at) / Fold change /veh RASL12 (11751679_a_at) / RFU CDKN2B (11736163_a_at) / Fold change /veh CDKN2B (11736163_a_at) / RFU PRF1 (11729649_at) / Fold change /veh PRF1 (11729649_at) / RFU, ZNF638 /// ZNF638-IT1 / Fold change vs veh, ZNF638 /// ZNF638-IT1 / RFU, PANK3 / Fold change vs veh, PANK3 / RFU, SH3YL1 / Fold change vs veh, SH3YL1 / RFU, ZEB2 / Fold change vs veh, ZEB2 / RFU, NRIP1 / Fold change vs veh, NRIP1 / RFU, PTTG1IP / Fold change vs veh, PTTG1IP / RFU, CAPN2 / Fold change vs veh, CAPN2 / RFU, MED14 / Fold change vs veh, MED14 / RFU, SNORA58 / Fold change vs veh, SNORA58 / RFU, C1orf63 / Fold change vs veh, C1orf63 / RFU, LRRFIP1 / Fold change vs veh, LRRFIP1 / RFU, NDUFAF7 / Fold change vs veh, NDUFAF7 / RFU, SLC12A2 / Fold change vs veh, SLC12A2 / RFU, IBTK / Fold change vs veh, IBTK / RFU, ESF1 / Fold change vs veh, ESF1 / Fold change vs veh, TMEM50B / RFU, TAOK1 / Fold change vs veh, TAOK1 / RFU, ACBD3 / Fold change vs veh, ACBD3 / RFU, TMA16 / Fold change vs veh, TMA16 / RFU, RWDD3 / Fold change vs veh, RWDD3 / RFU, BCAT1 / Fold change vs veh, BCAT1 / RFU, EDEM3 / Fold change vs veh, EDEM3 / RFU, TMEM33 / Fold change vs veh, TMEM33 / RFU, WDR75 / Fold change vs veh, WDR75 / RFU, AHCTF1 / Fold change vs veh, AHCTF1 / RFU, TFRC / Fold change vs veh, TFRC / RFU, ZDHHC17 / Fold change vs veh, ZDHHC17 / RFU, NOM1 / Fold change vs veh, NOM1 / RFU, ARL8B / Fold change vs veh, ARL8B / RFU, ZBTB11 / Fold change vs veh, ZBTB11 / RFU, TAMM41 / Fold change vs veh, TAMM41 / RFU, KIAA1704 /// LOC100996395 / Fold change vs veh, KIAA1704 /// LOC100996395 / RFU, ING1 / Fold change vs veh, ING1 / RFU, TRMT61B / Fold change vs veh, TRMT61B / RFU, FUBP3 / Fold change vs veh, FUBP3 / RFU, TP53 / Fold change vs veh, TP53 / RFU, TNKS2 / Fold change vs veh, TNKS2 / RFU, ZFP14 / Fold change vs veh, ZFP14 / RFU, ACTR2 / Fold change vs veh, ACTR2 / RFU, PPP3R1 / Fold change vs veh, PPP3R1 / RFU, PIK3R1 / Fold change vs veh, PIK3R1 / RFU, HNRNPA1 / Fold change vs veh, HNRNPA1 / RFU, RNF170 / Fold change vs veh, RNF170 / RFU, ZNF28 / Fold change vs veh, ZNF28 / RFU, RNGTT / Fold change vs veh, RNGTT / RFU, OGT / Fold change vs veh, OGT / RFU, BRD1 / Fold change vs veh, BRD1 / RFU, MARS / Fold change vs veh, MARS / RFU, ZNF655 / Fold change vs veh, ZNF655 / RFU, FAHD1 / Fold change vs veh, FAHD1 / RFU, BDP1 / Fold change vs veh, BDP1 / RFU, LRRCC1 / Fold change vs veh, LRRCC1 / RFU, ARID1A / Fold change vs veh, ARID1A / RFU, ZNF146 / Fold change vs veh, ZNF146 / RFU, ZNF330 / Fold change vs veh, ZNF330 / RFU, GPN3 / Fold change vs veh, GPN3 / RFU, C9orf123 / Fold change vs veh, C9orf123 / RFU, N4BP2L2 / Fold change vs veh, N4BP2L2 / RFU, ARFIP1 / Fold change vs veh, ARFIP1 / RFU, FAM179B / Fold change vs veh, FAM179B / RFU, BCL10 / Fold change vs veh, BCL10 / RFU, UHRF1BP1L / Fold change vs veh, UHRF1BP1L / RFU, BET1 / Fold change vs veh, BET1 / RFU, CNOT2 / Fold change vs veh, CNOT2 / RFU, ZNF268 / Fold change vs veh, ZNF268 / Fold change vs veh, ZNF507 / RFU, DGCR2 / Fold change vs veh, DGCR2 / RFU, WDSUB1 / Fold change vs veh, WDSUB1 / Fold change vs veh, HSP90B1 /// MIR3652 / RFU, ADSS / Fold change vs veh, ADSS / RFU, GK / Fold change vs veh, GK / RFU, ZNF148 / Fold change vs veh, ZNF148 / RFU, TAF9 / Fold change vs veh, TAF9 / RFU, SLC1A5 / Fold change vs veh, SLC1A5 / RFU, SLMO2 / Fold change vs veh, SLMO2 / RFU, ABCC4 / Fold change vs veh, ABCC4 / RFU, LOC101060439 /// RAP1B / Fold change vs veh, LOC101060439 /// RAP1B / RFU, RFX7 / Fold change vs veh, RFX7 / RFU, GTPBP10 / Fold change vs veh, GTPBP10 / RFU, CNEP1R1 / Fold change vs veh, CNEP1R1 / RFU, BIVM-ERCC5 /// ERCC5 / Fold change vs veh, BIVM-ERCC5 /// ERCC5 / RFU, ILF3 / Fold change vs veh, ILF3 / RFU 11762660_at / Fold change /veh 11762660_at / RFU VCAN (11757783_s_at) / Fold change /veh VCAN (11757783_s_at) / RFU DDX43 (11728927_at) / Fold change /veh DDX43 (11728927_at) / RFU KRT8 (11758188_x_at) / Fold change /veh KRT8 (11758188_x_at) / RFU NKD1 (11759106_at) / Fold change /veh NKD1 (11759106_at) / RFU SRD5A1 (11742802_a_at) / Fold change /veh SRD5A1 (11742802_a_at) / RFU TPSAB1 /// TPSB2 (11721975_s_at) / Fold change /veh TPSAB1 /// TPSB2 (11721975_s_at) / RFU GSTM3 (11746129_a_at) / Fold change /veh GSTM3 (11746129_a_at) / RFU IL23R (11737362_x_at) / Fold change /veh IL23R (11737362_x_at) / RFU TMEM51 (11727254_a_at) / Fold change /veh TMEM51 (11727254_a_at) / RFU PIWIL2 (11732686_x_at) / Fold change /veh PIWIL2 (11732686_x_at) / RFU ORM1 (11744905_x_at) / Fold change /veh ORM1 (11744905_x_at) / RFU CCDC152 (11743942_at) / Fold change /veh CCDC152 (11743942_at) / RFU ECM1 (11717891_a_at) / Fold change /veh ECM1 (11717891_a_at) / RFU IL23R (11748794_a_at) / Fold change /veh IL23R (11748794_a_at) / RFU TNFAIP8L3 (11732012_x_at) / Fold change /veh TNFAIP8L3 (11732012_x_at) / RFU MBOAT4 (11741988_at) / Fold change /veh MBOAT4 (11741988_at) / RFU 11764193_at / Fold change /veh 11764193_at / RFU TMEM53 (11763286_at) / Fold change /veh TMEM53 (11763286_at) / RFU MAGEB2 (11727129_at) / Fold change /veh MAGEB2 (11727129_at) / RFU TMEM200A (11744735_a_at) / Fold change /veh TMEM200A (11744735_a_at) / RFU CCDC152 (11751479_a_at) / Fold change /veh CCDC152 (11751479_a_at) / RFU FAM211A (11726209_a_at) / Fold change /veh FAM211A (11726209_a_at) / RFU RGS16 (11746705_a_at) / Fold change /veh RGS16 (11746705_a_at) / RFU VCAN (11755009_s_at) / Fold change /veh VCAN (11755009_s_at) / RFU RHOB (11743442_s_at) / Fold change /veh RHOB (11743442_s_at) / RFU RGS16 (11720943_a_at) / Fold change /veh RGS16 (11720943_a_at) / RFU RGS16 (11720944_at) / Fold change /veh RGS16 (11720944_at) / RFU, VPS4B / Fold change vs veh, VPS4B / RFU, CREB1 / Fold change vs veh, CREB1 / RFU, DNAJC13 / Fold change vs veh, DNAJC13 / RFU, GNAQ / Fold change vs veh, GNAQ / RFU, CDK5R1 / Fold change vs veh, CDK5R1 / RFU, ZRANB3 / Fold change vs veh, ZRANB3 / RFU, CUL4A / Fold change vs veh, CUL4A / RFU, CCNY / Fold change vs veh, CCNY / RFU, UFL1 / Fold change vs veh, UFL1 / RFU, COG3 / Fold change vs veh, COG3 / RFU, DIAPH2 / Fold change vs veh, DIAPH2 / RFU, SKA2 / Fold change vs veh, SKA2 / RFU, AFF3 / Fold change vs veh, AFF3 / RFU, LMF1 / Fold change vs veh, LMF1 / RFU, IPO11 / Fold change vs veh, IPO11 / RFU, DFFB / Fold change vs veh, DFFB / RFU, FOXP1 / Fold change vs veh, FOXP1 / RFU, CARD8 / Fold change vs veh, CARD8 / RFU, STRN3 / Fold change vs veh, STRN3 / RFU, ADK / Fold change vs veh, ADK / RFU, RASSF2 / Fold change vs veh, RASSF2 / RFU, WIPF1 / Fold change vs veh, WIPF1 / RFU, LARP1B / Fold change vs veh, LARP1B / RFU, RASA1 / Fold change vs veh, RASA1 / RFU, RB1 / Fold change vs veh, RB1 / RFU, PPFIA1 / Fold change vs veh, PPFIA1 / RFU, MAT2A / Fold change vs veh, MAT2A / RFU, CCT5 / Fold change vs veh, CCT5 / RFU, WDR92 / Fold change vs veh, WDR92 / RFU, CUX1 / Fold change vs veh, CUX1 / RFU, TTC7A / Fold change vs veh, TTC7A / RFU, TMEM135 / Fold change vs veh, TMEM135 / RFU, DEPTOR / Fold change vs veh, DEPTOR / RFU, CPM / Fold change vs veh, CPM / RFU, DNAJB6 / Fold change vs veh, DNAJB6 / RFU, CACNA2D3 / Fold change vs veh, CACNA2D3 / RFU, DTX4 / Fold change vs veh, DTX4 / RFU, TFCP2 / Fold change vs veh, TFCP2 / RFU, GMCL1 /// GMCL1P1 / Fold change vs veh, GMCL1 /// GMCL1P1 / RFU, AEBP2 / Fold change vs veh, AEBP2 / RFU, SNHG1 /// SNORD22 /// SNORD25 /// SNORD26 /// SNORD27 /// SNORD28 /// SNORD29 /// SNORD31 / Fold change vs veh, SNHG1 /// SNORD22 /// SNORD25 /// SNORD26 /// SNORD27 /// SNORD28 /// SNORD29 /// SNORD31 / Fold change (Aza/veh), C12orf56 (ProbeSet 11735607_a_at) / Fold change (ACY-1035/veh), C12orf56 (ProbeSet 11735607_a_at) / Fold change (Aza/veh), FGFR1OP (ProbeSet 11751329_s_at) / Fold change (ACY-1035/veh), FGFR1OP (ProbeSet 11751329_s_at) / Fold change (Aza/veh), VPS36 (ProbeSet 11739960_a_at) / Fold change (ACY-1035/veh), VPS36 (ProbeSet 11739960_a_at) / RFU SYPL1 (11715823_x_at) / Fold change /veh SYPL1 (11715823_x_at) / RFU IGFBP7 (11715501_s_at) / Fold change /veh IGFBP7 (11715501_s_at) / RFU REEP3 (11722064_at) / Fold change /veh REEP3 (11722064_at) / RFU IGLL1 (11728026_x_at) / Fold change /veh IGLL1 (11728026_x_at): dose or concentration left out as unconfirmed
# Conditions: ProbeSet 11749645_x_at; LIST B
structure (smiles),measurement,value
Nc1ncn([C@@H]2O[C@H](CO)[C@@H](O)[C@H]2O)c(=O)n1 [azacitidine],"RFU, ZNF268",156.52 RFU

# — article PMC5218480 (PLoS ONE, 2017)
